What all share (assay type): physicochemical
The nature of series [1]: Compression study (hydraulic press, XRPD). How it is done:
About 10 mg of […] Form C was compressed for 5 minutes under 5 MPa or 10 MPa with a hydraulic press. Potential form change and degree of crystallinity were evaluated by XRPD.

A short description of series [2]: Water activity experiments to determine relative stability of Forms A, B and C in water/EtOH systems (XRPD). How it is done: […]. Water activity experiments were conducted at 25° C. in several different water/EtOH systems to determine relative stability of M1P Forms A, B and C under these conditions.
About 5 mg each of M1P Forms A, B, and C were combined and added to 0.2 mL saturated solutions of a water/EtOH system. The resulting suspensions were stirred at 5° C., 25° C., or 50° C. for 4 days or 11 days. After 4 or 11 days, the solids (wet cakes) were isolated by centrifugation filtration and analyzed by XRPD to determine which Form(s) remained.

A short description of series [3]: Dry grinding study (XRPD). The conditions noted are these: ground manually with mortar and pestle for 3 min. How it is done: About 10 mg of […] Form C was ground manually with a mortar and a pestle for 3 min. Potential form change and degree of crystallinity were evaluated by XRPD.
The nature of series [4]: Water sorption by dynamic vapor sorption (DVS) at 25° C. As to the method:
Water sorption behavior of […] Form C was investigated using dynamic vapor sorption (DVS) at 25° C. The relative humidity (RH) was increased from 0-80%, with a minimum equilibration time of 60 min and a maximum equilibration time of 360 min.

Series [5] is described as follows: 12-month stability, polymorph characterization by XRPD and purity by chromatography. The conditions noted are these: −20° C., 25° C./60% RH, 40° C./75% RH, 5° C. As to the method:
[…] Form C was produced in accordance with the examples above. XRPD was used on samples taken at 1, 3, 6, 9 and 12 months, and tested under four conditions: • -20° C.±5° C., • 25° C.±2° C. at 60% relative humidity (RH)±5% RH, • 40° C.±2° C. at 75% RH±5% RH and • 5° C.±3° C.

Series [6] in a line: Wet granulation simulation (XRPD). The conditions noted are these: ethanol as the granulation solvent, dried 10 min at ambient conditions. How it is done: Ethanol was added dropwise to about 10 mg of M1P Form C until the sample was wetted sufficiently. The wet sample was ground gently in a mortar and a pestle. Post granulation, the sample was dried under ambient conditions for 10 min. Potential form change and degree of crystallinity were evaluated by XRPD.

Entries after “also recorded” stand apart in the source; their conditions may differ.

Take `O=P([O-])([O-])O[C@H]1O[C@H](CO)[C@@H](O)[C@H](O)[C@@H]1O.[K+].[K+]` [Form C]: the “form change by XRPD” value in series [1] (compressed for 5 minutes under 5 MPa) was “no form change was observed”; in series [1] (compressed for 5 minutes under 10 MPa) it was “no form change was observed”; in series [3], “no form change”; in series [6], “no form change”. In addition, the “degree of crystallinity by XRPD” value in series [1] (compressed for 5 minutes under 5 MPa and 10 MPa) was “crystallinity decreased”; in series [3], “crystallinity decreased”. In addition, in series [2], the “stability over water activity range” value was “stable over a wide water activity range”. The “form change by XRPD following the DVS experiment” value in series [4] (80% RH at 25° C.) was “no form change was observed”. In addition, the H2O absorbed in series [4] (DVS, 25° C., 80% RH) is 1.9 % (w/w). The hygroscopicity entry in series [4] (DVS, 25° C., RH 0-80%) was “only slightly hygroscopic; also recorded: low hygroscopicity”. In addition, the “% Water absorption” value in series [4] (DVS, 25° C., relative humidity 0%) is 0.01%; in series [4] (DVS, 25° C., relative humidity 10%), 0.51%; in series [4] (DVS, 25° C., relative humidity 20%) it was 0.59%; in series [4] (DVS, 25° C., relative humidity 30%) it was 0.63%; in series [4] (DVS, 25° C., relative humidity 40%) it was 0.65%; in series [4] (DVS, 25° C., relative humidity 50%), 0.69%. The “% Water absorption” value was found to be 0.73% in series [4] (DVS, 25° C., relative humidity 60%); 0.82% in series [4] (DVS, 25° C., relative humidity 70%); 1.93% in series [4] (DVS, 25° C., relative humidity 80%). In series [5] (1, 3, 6, 9 and 12 months), the “changes to the polymorphic form by XRPD” value is given as “no observed changes to the polymorphic form”. In addition, the “changes in purity by chromatography” value in series [5] (12-month stability) is listed as “no substantial changes observed”.
